Data on two molecules can be found in patent US20220265668A1, “TREATMENT AND/OR PREVENTION OF LESIONS IN THE CENTRAL AUDITORY NERVOUS SYSTEM” (SENSORION, priority 2019, published 2022).

Assay [1] concerns neuronal cells in the ventral cochlear nucleus (VCN). The assay can be described thus: Neuronal cell density in the ventral cochlear nucleus (VCN) after noise trauma. In kind it is in vivo, mice. The protocol:
(§1) Noise application was performed for 3 h under anesthesia, using a broad band noise 4-20 kHz, 115 dB SPL, free-field.
(§2) Post-traumatic (0; 24 h; 48 h or 72 h after noise exposure) initiation of oral administration of 26.4 mg/kg (R)-azasetron besylate or of the related placebo formulation, respectively, was performed once daily. Treatments were continued daily for 14 days. • Treatment (T) group 1 +Placebo (P) group 1: Treatment from d1-d14 • Treatment (T) group 2 +Placebo (P) group 2: Treatment from d2-d15 • Treatment (T) group 3 +Placebo (P) group 3: Treatment from d3-d16 • Treatment (T) group 4 +Placebo (P) group 4: Treatment from d4-d17
(§3) Six animals per group (48 in total) have been perfused via the left hearth chamber with a fixative solution (paraformaldehyde (4%)) on day 15.
(§4) Cochleae and brains were prepared (cutting, staining), as disclosed in Gröschel et al. (2010).

Assay [2] concerns young adult NMRI mice having undergone an acoustic trauma. The assay can be described thus: Frequency specific ABR thresholds after noise trauma. The note with it: 26.4 mg/kg peroral once daily for 14 days after noise trauma (4-20 kHz, 115 dB SPL, 3 h); compared to placebo; FIG. 1. In kind it is in vivo. As for the experimental part:
12 animals per group (young adult Naval Medical Research Institute (NMRI) mice), 96 animals in total.
Frequency specific ABR-thresholds at 4; 8; 12; 16; 20; 24; 28; 32 kHz under anesthesia (Ketamine/Xylazine). At least 3 measurements per frequency were performed.
as §1, §2

Assay [3] relates to outer hair cells (OHC) in the cochlea. As to the kind of experiment: Cochlear hair cell loss (cochleogram) after noise trauma. In kind it is in vivo, mice. The note with it: 26.4 mg/kg peroral once daily for 14 days after noise trauma; at growing distances from the apex; vs placebo; FIG. 2. The protocol: as §1, §2, §3, §4
For assay [4], the system named is neuronal cells in the inferior colliculus (IC). As to the kind of experiment: Neuronal cell density in the inferior colliculus (IC) after noise trauma. In kind it is in vivo, mice. The note with it: 26.4 mg/kg peroral once daily for 14 days, initiated 0 h, 24 h, 48 h or 72 h after acoustic trauma; compared to placebo; FIG. 5. As for the experimental part: as §1, §2, §3, §4

For the molecule `CN1C(=O)COc2c(C(=O)NC3CN4CCC3CC4)cc(Cl)cc21` (centres unmarked) [azasetron, N-(1-azabicyclo[2.2.2]octan-8-yl)-6-chloro-4-methyl-3-oxo-1,4-benzoxazine-8-carboxamide, reference compound], the “loss of neurons in the brainstem” value in assay [1] (administration upon the onset of lesions after acoustic trauma, summary in discussion (VCN and IC)) is “significantly reduce the loss of neurons”.

For the molecule `CN1C(=O)COc2c(C(=O)N[C@H]3CN4CCC3CC4)cc(Cl)cc21` [(R)-azasetron besylate], the “destruction of neuronal cells in the VCN (normalized cell densities per grid)” value in assay [1] (26.4 mg/kg peroral once daily for 14 days, initiated immediately or 24/48/72 h after acoustic trauma, vs placebo, FIGS. 3 and 4) is listed as “reduces the destruction of neuronal cells”. Further, the “threshold shift of the auditory brainstem response” value in assay [2] is “does not significantly affect”. Also, in assay [3], the “loss of outer hair cells (OHC) in the cochlea” value was “affects the loss of outer hair cells”. Besides, the “destruction of neuronal cells in the IC (normalized cell densities per grid)” value in assay [4] is “reduces the destruction of neuronal cells”.
